Where two headings read alike, the source gives them in different places.
Columns and labels:
Assay type in all cases: cell-based
[1] = tested on: HIV-1 reference strain NL4-3; assay: MonoCycle assay (TZM-bl cells)
Protocol: MonoCycle assay is a cell based assay allowing the evaluation of antiviral activity of HIV-1 inhibitors targeting the early steps of HIV-1 life cycle such as entry, uncoating of viral particles, reverse transcription and integration. The assay consists in the infection of TZM-bl cells (20,000/well) with the HIV-1 reference strain NL4-3 in presence of serial five-fold dilutions of the investigational inhibitors. After 48 hours, cells were lysed adding 40 µl of Glo Lysis Buffer (Promega) to each well for 5 minutes, then 40 µl of Brighy-Glo Luciferase Reagent (Promega) were added to each well for relative luminescence units (RLU) counting using Glo-Max Multi Detection System (Promega). RLU values from each well were elaborated using the GraphPad v5.0 software to calculate the IC50 of each compound.

HeLa cells = assay: HeLa Proliferation assay (CellTiter Glo); details: 72 hours
Protocol: HeLa cells (ATCC® CCL2™) in DMEM (Dulbecco Modified Eagle's Medium) without phenol red, Thermo, 11880, USA + 10% FBS + 1X PenStrep + 1X Gln or HUVEC cells (ATCC® CRL1730™) in EBM-2 (Endothelial Growth Basal Medium, Lonza, CC3156) + EGM-2 SingleQuotsTMSupplements and Growth Factors (Lonza, CC4176) + 1X Penicyllin-Streptomycin (PenStrep, ThermoFisher) + 1X Glutamine, are plated in a 384 well plate (Thermo, 4334-11, USA) to a density of 2000 cells per well and let recover for four hours at 37 °C, 5% CO2 in a humidified atmosphere. After the recovery, compounds are transferred to assay plates as per compound preparation method. Assay plates are then incubated at 37 °C, 5% CO2 in a humidified atmosphere for 72 hours. Cell viability is measured by the CellTiter Glo (Promega, G8080, USA) as per manufacturer instruction.

[2] = tested on: Peripheral blood mononuclear cells (PBMC); details: human, 7 days
Protocol: Peripheral blood mononuclear cells (PBMC) obtained from healthy donors by separation over Ficoll-Hypaque (GEHealthear-Cat.# GEH17-1440-02) were suspended at 2x10^6 cells/mL in RPMI 1640 (Biowest-Cat.#L0501-500) supplemented with 10% of heat-inactivated sterile fetal bovine serum (Gibco-Cat.#10270-106), 2 mmol/l L-glutamine (Biowest-Cat.#X0550-100), 50 U/mL Penicillin-50 µg/mL Streptomycin (Biowest-Cat.#L0022-100), referred to as complete medium (CM). PBMC were supplemented with 5 µg/mL of phytohaemagglutinin (Sigma Aldr-Cat.#L1668) and cultured in 75 cm^2 flasks (Sarsted-Cat.#833.911.002) for 2 days at 37 °C in a humidified atmosphere with 5% CO2.
PBMC were then washed in CM, counted by trypan blue exclusion (Gibco-Cat. #15250-061), centrifuged and suspended in fresh CM supplemented with 20 IU/mL recombinant human IL-2 (Miltenyi Biotec-Cat.#130-097-748) and seeded in a 96-well-tissue culture plate (Sarsted-Ca#831.837) at the density of 5x10^5 cells/mL (or 1x10^5 cells in 200 µL final CM volume per well). Cells were left untreated (negative control) or treated with different concentrations of the compounds.
After 7 days of incubation cytotoxicity was determined using Promega's CellTiter 96(R) AQueous One Solution Cell Proliferation Assay (MTS assay) (Promega-Cat.#G3581) according to the manufacturer's instuctions. This is a colorimetric method for determining the number of viable cells in proliferation or cytotoxicity assays. The MTS tetrazolium compound is bioreduced by cells into a colored formazan product that is soluble in tissue culture medium. This conversion is presumably accomplished by NADPH or NADH produced by dehydrogenase enzymes in metabolically active cells.
Briefly, MTS solution was thawed at room temperature, or in a water bath at 37 °C and 40 µL of MTS solution was pipeted into each well of the 96-well assay plate containing the samples in 200 µL of culture medium and incubated at 37 °C, 5% CO2 for 4 hours. The optical density was read at 490 nm using a 96-well plate reader (Tecan Infinite F50) and TD50 (toxic dose 50%, dose killing 50% of the cells compared to untreated control) value was calculated by interpolation of the curve obtained by plotting dose against percent mortality and by using "Magellan data analysis software". CM alone plus MTS solution was used as a blank, and cell culture well without compound was used as a cellular control.

[3] = Human immunodeficiency virus 1, NL43, TZM-bl, 48 h, read-out: Mono Cycle IC50 nM

SMILES	IC50 [1, 3]	Proliferation assay HELA TD50 (HeLa cells)	Proliferation assay PBMC TD50 [2]	IC50 ([1]; Human immunodeficiency virus 1, NL43, TZM-bl cells, NL4-3, 48 hours, read-out: Mono Cycle IC50)
C[C@@H](NC(=O)c1nc(-c2ccc(CNCc3ccccc3)cn2)nc(O)c1O)C1CCCCC1 [Compound 53, (R)-2-(5-((benzylamino)methyl)pyridin-2-yl)-N-(1-cyclohexylethyl)-5,6-dihydroxypyrimidine-4-carboxamide]	38100 nM	2.8763 µM	790 nM	
C[C@@H](NC(=O)c1nc(-c2ccc3ccccc3n2)nc(O)c1O)C1CCCCC1 [Compound 22, (R)-N-(1-cyclohexylethyl)-5,6-dihydroxy-2-(quinolin-2-yl)pyrimidine-4-carboxamide]	100000 nM	2.8446 µM	8050 nM	
C[C@H](CC1CCCCC1)NC(=O)c1nc(-c2ccccn2)nc(O)c1O [Compound 64, (R)-N-(1-cyclohexylpropan-2-yl)-5,6-dihydroxy-2-(pyridin-2-yl)pyrimidine-4-carboxamide]	23700 nM	0.4717 µM	2500 nM	
O=C(NCC1CCCCC1)c1nc(-c2ncccc2Cl)nc(O)c1O [Compound 16, 2-(3-chloropyridin-2-yl)-N-(cyclohexylmethyl)-5,6-dihydroxypyrimidine-4-carboxamide]		16.609 µM	5700 nM	51100 nM
COc1ccc(-c2nc(O)c(O)c(C(=O)N[C@H](C)C3CCCCC3)n2)nc1 [Compound 32, (R)-N-(1-cyclohexylethyl)-5,6-dihydroxy-2-(5-methoxypyridin-2-yl)pyrimidine-4-carboxamide]	8260 nM	0.9356 µM	3000 nM	
O=C(OCCC1CCCCC1)c1nc(-c2ccccn2)nc(O)c1O [Compound 12, 2-cyclohexylethyl 5,6-dihydroxy-2-(pyridin-2-yl)pyrimidine-4-carboxylate]	> 50000 nM	>50 µM	4000 nM	
C[C@@H](NC(=O)c1nc(-c2cc3ccccc3cn2)nc(O)c1O)C1CCCCC1 [Compound 25, (R)-N-(1-cyclohexylethyl)-5,6-dihydroxy-2-(isoquinolin-3-yl)pyrimidine-4-carboxamide]	64000 nM	1.3934 µM	1750 nM	
CCNCc1ccc(-c2nc(O)c(O)c(C(=O)N[C@H](C)C3CCCCC3)n2)nc1 [Compound 60, (R)-N-(1-cyclohexylethyl)-2-(5-((ethylamino)methyl)pyridin-2-yl)-5,6-dihydroxypyrimidine-4-carboxamide]	> 50000 nM	6.4286 µM	1600 nM	
CC(OC(=O)c1nc(-c2ccccn2)nc(O)c1O)C1CCCCC1 (stereo not drawn) [Compound 17, 1-cyclohexylethyl 5,6-dihydroxy-2-(pyridin-2-yl)pyrimidine-4-carboxylate]	> 50000 nM	>50 µM	5500 nM	
O=C(OCCCC1CCCCC1)c1nc(-c2ccccn2)nc(O)c1O [Compound 14, 3-cyclohexylpropyl 5,6-dihydroxy-2-(pyridin-2-yl)pyrimidine-4-carboxylate]	> 50000 nM	>50 µM	5600 nM	
C[C@@H](NC(=O)c1nc(-c2cc(CCN(C)C)ccn2)nc(O)c1O)C1CCCCC1 [Compound 92, (R)-N-(1-cyclohexylethyl)-2-(4-(2-(dimethylamino)ethyl)pyridin-2-yl)-5,6-dihydroxypyrimidine-4-carboxamide]	6120 nM	1.1684 µM	2020 nM	
C[C@@H](NC(=O)c1nc(-c2cc(N3CCN(C)CC3)ccn2)nc(O)c1O)C1CCCCC1 [Compound 76, (R)-N-(1-cyclohexylethyl)-5,6-dihydroxy-2-(4-(4-methylpiperazin-1-yl)pyridin-2-yl)pyrimidine-4-carboxamide]	18300 nM	3.6831 µM	2500 nM	
CC(NC(=O)c1nc(-c2cc(Cl)ccn2)nc(O)c1O)C1CCC(F)(F)CC1 (stereo not drawn) [Compound 87, 2-(4-chloropyridin-2-yl)-N-(1-(4,4-difluorocyclohexyl)ethyl)-5,6-dihydroxypyrimidine-4-carboxamide]	> 50000 nM	6.158 µM	3220 nM	
C[C@@H](NC(=O)c1nc(-c2ccc(CN3CCCC3)cn2)nc(O)c1O)C1CCCCC1 [Compound 93, (R)-N-(1-cyclohexylethyl)-5,6-dihydroxy-2-(5-(pyrrolidin-1-ylmethyl)pyridin-2-yl)pyrimidine-4-carboxamide]	> 50000 nM		1870 nM	
C[C@H](NC(=O)c1nc(-c2nccc3[nH]ccc23)nc(O)c1O)C1CCCCC1 [Compound 86, (S)-N-(1-cyclohexylethyl)-5,6-dihydroxy-2-(1H-pyrrolo[3,2-c]pyridin-4-yl)pyrimidine-4-carboxamide]	> 50000 nM	1.4147 µM		
CC1CCC(NC(=O)c2nc(-c3ccccn3)nc(O)c2O)CC1 (stereo not drawn) [Compound 56, 5,6-dihydroxy-N-(4-methylcyclohexyl)-2-(pyridin-2-yl)pyrimidine-4-carboxamide]		3.2039 µM	4600 nM	
C[C@@H](NC(=O)c1nc(-c2ccc(C(N)=O)cn2)nc(O)c1O)C1CCCCC1 [Compound 51, (R)-2-(5-carbamoylpyridin-2-yl)-N-(1-cyclohexylethyl)-5,6-dihydroxypyrimidine-4-carboxamide]		26.976 µM	8000 nM	
CC1(C)CCC(NC(=O)c2nc(-c3ccccn3)nc(O)c2O)CC1 [Compound 58, N-(4,4-dimethylcyclohexyl)-5,6-dihydroxy-2-(pyridin-2-yl)pyrimidine-4-carboxamide]		2.0452 µM	1600 nM	
C[C@@H](NC(=O)c1nc(-c2ccc(CO)cn2)nc(O)c1O)C1CCCCC1 [Compound 55, (R)-N-(1-cyclohexylethyl)-5,6-dihydroxy-2-(5-(hydroxymethyl)pyridin-2-yl)pyrimidine-4-carboxamide]	9050 nM	1.4665 µM		
